# Experimental data taken from patent publication EP1157985A1 (G.D. SEARLE & CO., priority 1996, dated 1997).
# Counter-ions that a name gives are not always drawn.
# Assays:
# [1] = target: T1, Human fibrinogen receptor (αIIbβ3) (Homo sapiens, UniProt P05106+P08514); assay: Purified IIb/IIIa receptor assay (solid phase receptor assay, competition with biotinylated vitronectin); format: binding; details: purified receptor from outdated platelets; 1 nM biotinylated vitronectin; highest concentration tested 1.0 x 10^-4 M
# T1 construct: Human fibrinogen receptor (αIIbβ3) was purified from outdated platelets; from tissue; host or cells: outdated (human) platelets
# Description: PURIFIED IIb/IIIa RECEPTOR ASSAY
# Human fibrinogen receptor (αIIbβ3) was purified from outdated platelets. (Pytela, R., Pierschbacher, M.D., Argraves, S., Suzuki, S., and Rouslahti, E. "Arginine-Glycine-Aspartic acid adhesion receptors", Methods in Enzymology 144(1987):475-489.) Human vitronectin was purified from fresh frozen plasma as described in Yatohgo, T., Izumi, M., Kashiwagi, H., and Hayashi, M., "Novel purification of vitronectin from human plasma by heparin affinity chromatography," Cell Structure and Function 13(1988):281-292. Biotinylated human vitronectin was prepared by coupling NHS-biotin from Pierce Chemical Company (Rockford, IL) to purified vitronectin as previously described. (Charo, I.F., Nannizzi, L., Phillips, D.R., Hsu, M.A., Scarborough, R.M., "Inhibition of fibrinogen binding to GP IIb/IIIa by a GP IIIa peptide", J. Biol. Chem. 266(3)(1991): 1415-1421.) Assay buffer, OPD substrate tablets, and RIA grade BSA were obtained from Sigma (St. Louis, MO). Anti-biotin antibody was obtained from Calbiochem (La Jolla, CA). Linbro microtiter plates were obtained from Flow Labs (McLean, VA). ADP reagent was obtained from Sigma (St. Louis, MO).
# This assay is essentially the same reported in Niiya, K., Hodson, E., Bader, R., Byers-Ward, V. Koziol, J.A., Plow, E.F. and Ruggeri, Z.M., "Increased surface expression of the membrane glycoprotein IIb/IIIa complex induced by platelet activation: Relationships to the binding of fibrinogen and platelet aggregation", Blood 70(1987):475-483. The purified human fibrinogen receptor (αIIbβ3) was diluted from stock solutions to 1.0 µg/mL in Tris-buffered saline containing 1.0 mM Ca^++, Mg^++, and Mn^++, pH 7.4 (TBS^+++). The diluted receptor was immediately transferred to Linbro microtiter plates at 100 µL/well (100 ng receptor/well). The plates were sealed and incubated overnight at 4°C to allow the receptor to bind to the wells. All remaining steps were at room temperature. The assay plates were emptied and 200 µL of 1% RIA grade BSA in TBS^+++ (TBS^+++/BSA) were added to block exposed plastic surfaces. Following a 2 hour incubation, the assay plates were washed with TBS^+++ using a 96 well plate washer. Logarithmic serial dilution of the test compound and controls were made starting at a stock concentration of 2 mM and using 2 nM biotinylated vitronectin in TBS^+++/BSA as the diluent. This premixing of labeled ligand with test (or control) ligand, and subsequent transfer of 50 µL aliquots to the assay plate was carried out with a CETUS Propette robot; the final concentration of the labeled ligand was 1 nM and the highest concentration of test compound was 1.0 x 10^-4 M. The competition occurred for two hours after which all wells were washed with a plate washer as before. Affinity purified horseradish peroxidase labeled goat anti-biotin antibody was diluted 1:3000 in TBS^+++/BSA and 125 µL were added to each well. After 30 minutes, the plates were washed and incubated with […] substrate in 100 mM/L citrate buffer, pH 5.0. The plate was read with a microtiter plate reader at a wavelength of 450 nm and when the maximum-binding control wells reached an absorbance of about 1.0, the final A450 were recorded for analysis. The data were analyzed using a macro written for use with the EXCEL™ spreadsheet program. The mean, standard deviation, and %CV were determined for duplicate concentrations. The mean A450 values were normalized to the mean of four maximum-binding controls (no competitor added)(B-MAX). The normalized values were subjected to a four parameter curve fit algorithm, [Robard et al., Int. […]
# [2] = target: T2, Human vitronectin receptor (αvβ3) (Homo sapiens, UniProt P05106+P06756); assay: Vitronectin adhesion assay (solid phase receptor assay, competition with biotinylated vitronectin); format: binding; details: purified receptor from human placenta; 1 nM biotinylated vitronectin; highest concentration tested 1.0 x 10^-4 M; read-out: AvB3 IC50
# T2 construct: Human vitronectin receptor (αvβ3) was purified from human placenta; from tissue; host or cells: human placenta
# Protocol: VITRONECTIN ADHESION ASSAY
# Human vitronectin receptor (αvβ3) was purified from human placenta as previously described [Pytela et al., Methods in Enzymology, 144:475-489 (1987)]. Human vitronectin was purified from fresh frozen plasma as previously described [Yatohgo et al., Cell Structure and Function, 13:281-292 (1988)]. Biotinylated human vitronectin was prepared by coupling NHS-biotin from Pierce Chemical Company (Rockford, IL) to purified vitronectin as previously described [Charo et al., J. Biol. Chem., 266(3):1415-1421 (1991)]. Assay buffer, OPD substrate tablets, and RIA grade BSA were obtained from Sigma (St. Louis, MO). Anti-biotin antibody was obtained from Calbiochem (La Jolla, CA). Linbro microtiter plates were obtained from Flow Labs (McLean, VA). ADP reagent was obtained from Sigma (St. Louis, MO).
# This assay was essentially the same as previously reported [Niiya et al., Blood, 70:475-483 (1987)]. The purified human vitronectin receptor (αvβ3) was diluted from stock solutions to 1.0 µg/mL in Tris-buffered saline containing 1.0 mM Ca^++, Mg^++, and Mn^++, pH 7.4 (TBS^+++). The diluted receptor was immediately transferred to Linbro microtiter plates at 100 µL/well (100 ng receptor/well). The plates were sealed and incubated overnight at 4°C to allow the receptor to bind to the wells. All remaining steps were at room temperature. The assay plates were emptied and 200 µL of 1% RIA grade BSA in TBS^+++ (TBS^+++/BSA) were added to block exposed plastic surfaces. Following a 2 hour incubation, the assay plates were washed with TBS^+++ using a 96 well plate washer. Logarithmic serial dilution of the test compound and controls were made starting at a stock concentration of 2 mM and using 2 nM biotinylated vitronectin in TBS^+++/BSA as the diluent. This premixing of labeled ligand with test (or control) ligand, and subsequent transfer of 50 µL aliquots to the assay plate was carried out with a CETUS Propette robot; the final concentration of the labeled ligand was 1 nM and the highest concentration of test compound was 1.0 x 10^-4 M. The competition occurred for two hours after which all wells were washed with a plate washer as before. Affinity purified horseradish peroxidase labeled goat anti-biotin antibody was diluted 1:3000 in TBS^+++/BSA and 125 µL were added to each well. After 30 minutes, the plates were washed and incubated with OPD/H2O2 substrate in 100 mM/L Citrate buffer, pH 5.0. The plate was read with a microtiter plate reader at a wavelength of 450 nm and when the maximum-binding control wells reached an absorbance of about 1.0, the final A450 were recorded for analysis. The data were analyzed using a macro written for use with the EXCEL™ spreadsheet program. The mean, standard deviation, and %CV were determined for duplicate concentrations. The mean A450 values were normalized to the mean of four maximum-binding controls (no competitor added)(B-MAX). The normalized values were subjected to a four parameter curve fit algorithm [Rodbard et al., Int.
SMILES,IC50 [1],IC50 [2]
"N=C(N)Nc1cccc(C(=O)Nc2ccc(CC(C(=O)O)C(=O)O)cc2)c1 [Example 120, [[4-[[[3-[(aminoiminomethyl)amino]phenyl]carbonyl]-amino]phenyl]methyl]-1,3-propanoic acid, trifluoroacetic salt]",384 nM,14 nM
"CC(C)OC(=O)NC(Cc1ccc(NC(=O)c2cccc(NC3=NC(=O)CN3)c2)cc1)C(=O)O (stereo not shown) [Example 77, 4-[[[3-[(4,5-dihydro-4-oxo-lH-imidazol-2-yl)amino]phenyl]carbonyl]amino]-N-[(1-methylethoxy)-carbonyl]phenylalanine]",1260 nM,1.6 nM
"N=C(N)Nc1cccc(C(=O)Nc2ccc(CC(NC(=O)N3CCCCC3)C(=O)O)cc2)c1 (stereo not shown) [Example 126, 4-[[[3-[(aminoiminomethyl)amino]phenyl]carbonyl]-amino]-N-[(1-pipridinyl)carbonyl]phenyl-alanine, trifluoroacetate salt]",36 nM,2 nM
"CCCCS(=O)(=O)N[C@@H](Cc1ccc(NC(=O)c2cccc(NC3=NCCCCC3)c2)cc1)C(=O)O [Example 10, N-(butylsulfonyl)-4-[[[3-[(3,4,5,6-tetrahydro-2H-azepin-7-yl)-amino]phenyl]carbonyl]amino]phenylalanine, trifluoroacetate salt]",26.9 nM,1.17 nM
"CN(C(=O)c1cccc(NC(=N)N)c1)c1ccc(CCC(=O)O)cc1 [Example 61, 4-[[[3-[(aminoiminomethyl)amino]phenyl]carbonyl]methylamino]benzenepropanoic acid, monohydrate trifluoroacetate salt]",666 nM,470 nM
COC(=O)C(C)Oc1ccc(NC(=O)c2cccc(NC(=N)N)c2)cc1 (stereo not shown) [Example 85C],66000 nM,39600 nM
"CCOC(=O)CS(=O)(=O)c1ccc(NC(=O)c2cccc(NC(=N)N)c2)cc1 [Example 80, ethyl [[4-[[[3-[(aminoiminomethyl)amino]phenyl]carbonyl]amino]phenyl]sulfonyl]acetate, monohydrate trifluoroacetate salt]",19800 nM,44200 nM
"CCOC(=O)COc1ccc(NC(=O)c2cccc(NC(=N)N)c2)cc1 [Example 89, ethyl [4-[[[3-[(aminoiminomethyl)amino]phenyl]carbonyl]amino]phenoxy]acetate, trifluoroacetate salt]",16000 nM,2070 nM
"CC(C)OC(=O)NC(Cc1ccc(NC(=O)c2cccc(Nc3noc(N)n3)c2)cc1)C(=O)O (racemic) [Example 104, (±) 4-[[[3-[(5-amino-1,2,4-oxadiazol-3-yl)amino]-phenyl]carbonyl]amino]-N-[(1-methylethoxy)carbonyl]phenylalanine, trifluoroacetate salt]",1600 nM,506 nM
"N=C(N)Nc1cccc(C(=O)Nc2ccc(CC(NS(=O)(=O)c3cc(Cl)cc(Cl)c3)C(=O)O)cc2)c1 (stereo not shown) [Example 122, [4-[[[3-[(aminoiminomethyl)amino]phenyl]carbonyl]-amino]-N-[(3,5-dichlorophenyl)sulfonyl]phenyl-alanine, trifluoroacetate salt]",50 nM,7 nM
"N=C(N)c1cccc(C(=O)NCc2ccc(CCC(=O)O)cc2)c1 [Example 19, 4-[[[[3-(aminoiminomethyl)phenyl]carbonyl]amino]methyl]benzenepropanoic acid, trifluoroacetate salt]",1780 nM,> 100000 nM
"CCCCS(=O)(=O)N[C@@H](Cc1ccc(NC(=O)c2cc(NC3=NCCCCC3)cc(C(F)(F)F)c2)cc1)C(=O)O [Example 6, N-(butylsulfonyl)-4-[[[3-[(3,4,5,6-tetrahydro-2H-azepin-7-yl)-amino]-5-(trifluoromethyl)phenyl]carbonyl]-amino]phenylalanine, trifluoroacetate salt]",49.5 nM,0.51 nM
"N=C(N)Nc1cccc(NC(=O)Cc2ccc(OCC(=O)O)cc2)c1 [Example 84, [4-[2-[[3-[(aminoiminomethyl)amino]phenyl]amino]-2-oxoethyl]phenoxy]acetic acid, trifluoroacetate salt]",486 nM,16300 nM
"CCOC(=O)CCc1ccc(N(C)C(=O)c2cccc(NC(=N)N)c2)cc1 [Example 60, ethyl 4-[[[3-[(aminoiminomethyl)amino]phenyl]carbonyl]methylamino]benzenepropanoate, trifluoroacetate salt]",3810 nM,3370 nM
"COc1cc(NC(=O)c2cccc(NC3=NCCCN3)c2)ccc1C[C@H](NC(=O)OC(C)C)C(=O)O [Example 114, 2-methoxy-N-[(1-methylethoxy)carbonyl]-4-[[[3-[(1,4,5,6-tetrahydropyrimidin-2-yl)amino]-phenyl]-carbonyl]amino]phenylalanine, trifluoroacetate salt]",1000 nM,0.2 nM
"CC(C)OC(=O)NC(Cc1ccc(NC(=O)c2cccc(N=C(N)N)c2)cc1)C(=O)O (stereo not shown) [Example 50, trifluoroacetate salt]",21.7 nM,0.8 nM
"CCOC(=O)C(Cc1ccc(NC(=O)c2cccc(NC(=N)N)c2)cc1)NC(=O)OC(C)(C)C (stereo not shown) [Example 44, trifluoroacetate salt]",4310 nM,120 nM
